Measurements reported in patent US11464749B2, “Bismuth-thiol compositions and methods of use” (Microbion Corporation, priority 2018, dated 2022).
Converted amounts (≈) assume the structure as drawn. Read-outs that look alike come from different tables or passages of the source. Values belong to the compound of their own block, whether it stands above or below them.

Tests used:
Escherichia coli [1] = conditions: E. coli MMX 102 (ATCC 25922); CLSI QC ranges shown in parenthesis; cited from earlier work
Pseudomonas aeruginosa [2] = conditions: P. aeruginosa MMX 103 (ATCC 27853); CLSI QC ranges shown in parenthesis; cited from earlier work
Escherichia coli [3] = assay: Broth microdilution MIC (Example 11)
Klebsiella pneumoniae = assay: Broth microdilution MIC (Example 11)
Enterobacter cloacae = assay: Broth microdilution MIC (Example 11); conditions: ATCCBAA2468
Pseudomonas aeruginosa [4] = assay: Broth microdilution MIC (Example 11); conditions: Pseudomonas aeruginosa
Acinetobacter baumannii = assay: Broth microdilution MIC (Example 11); conditions: Acinetobacter baumannii
[5] = system: Staphylococcus aureus (MRSA); assay: Broth microdilution MIC (Example 11)
E. faecalis = assay: Broth microdilution MIC (Example 11); conditions: Enterococcus faecalis, VRE, VRE Lev^R Cip^R Ery^R
M. abscessus complex = assay: MIC against CF bacterial strains (Example 5); format: cell-based, Mycobacterium abscessus; conditions: Mycobacteroides abscessus, read-out: MIC
Protocol: A range of CF-isolated strains of Mycobacterium avium and Mycobacterium abscessus were included; which allows for understanding of the activity against non-tubercular Mycobacteria (NTM). Two distinct bismuth-thiol compounds were evaluated, including BisEDT and BisBDT. […] The CF-isolates of greater clinical relevance, including both M abscessus spp. and Burkholderia spp., were both consistently found to be much more susceptible to BisEDT and BisBDT.

S. aureus ATCC 29213 = conditions: control strain ATCC 29213; per CLSI M100-S24 or provided by Microbion; cited from earlier work

- MIC (Escherichia coli [3]; ATCC25922, E. coli MMX 102 (ATCC 25922), QC): 0.12 µg/mL (≈ 0.22 µM)
- MIC (Escherichia coli [3]; ATCCBAA2469, E. coli MMX 5980 (ATCC BAA-2469), NDM-1, Lev^R, MEM^R, CAZ^R, Gm^R): > 32 µg/mL
- MIC (Escherichia coli [3]; E. coli MMX 8423, ESBL, Lev^R, CAZ^R, Gm^R): 32 µg/mL (≈ 58.5 µM)
- MIC (Escherichia coli [3]; E. coli MMX 8424, ESBL, CAZ^R): 16 µg/mL (≈ 29.3 µM)
- MIC (Escherichia coli [3]; E. coli MMX 8425, ESBL, Lev^R, CAZ^R, Gm^R): 16 µg/mL (≈ 29.3 µM)
- MIC (Klebsiella pneumoniae; K. pneumoniae MMX 4622, KPC-2, MEM^R, CAZ^R): > 32 µg/mL
- MIC (Klebsiella pneumoniae; K. pneumoniae MMX 4623, KPC-2, MEM^R, CAZ^R, GM^R): > 32 µg/mL
- MIC (Klebsiella pneumoniae; K. pneumoniae MMX 4653, KPC-3, Lev^R, MEM^R, CAZ^R): > 32 µg/mL
- MIC (Klebsiella pneumoniae; K. pneumoniae MMX 4683, KPC-2, Lev^R, MEM^R, CAZ^R): > 32 µg/mL
- MIC (Klebsiella pneumoniae; K. pneumoniae MMX 4684, ESBL, MEM^R): 8 µg/mL (≈ 14.6 µM)
- MIC (Klebsiella pneumoniae; K. pneumoniae MMX 4685, ESBL, Lev^R, MEM^R, CAZ^R): > 32 µg/mL
- MIC (Klebsiella pneumoniae; K. pneumoniae MMX 4694, KPC-3, Lev^R, MEM^R, CAZ^R): > 32 µg/mL
- MIC (Klebsiella pneumoniae; K. pneumoniae MMX 5979, NDM-1, Lev^R, MEM^R, CAZ^R, Gm^R): > 32 µg/mL
- MIC (Enterobacter cloacae): > 32 µg/mL
- MIC (Pseudomonas aeruginosa [4]; ATCC27853, P. aeruginosa MMX 103 (ATCC 27853), QC): 2 µg/mL (≈ 3.66 µM)
- MIC (Pseudomonas aeruginosa [4]; P. aeruginosa MMX 1381, MDR, Lev^R, Cip^R, MEM^R, CAZ^R): 32 µg/mL (≈ 58.5 µM)
- MIC (Pseudomonas aeruginosa [4]; P. aeruginosa MMX 2562, MDR, Lev^R, Cip^R, MEM^R, CAZ^R): > 32 µg/mL
- MIC (Pseudomonas aeruginosa [4]; P. aeruginosa MMX 3991, MDR, Lev^R, Cip^R, MEM^R, CAZ^R): 16 µg/mL (≈ 29.3 µM)
- MIC (Pseudomonas aeruginosa [4]; P. aeruginosa MMX 4654, IMP-7, Lev^R, Cip^R, MEM^R, CAZ^R): > 32 µg/mL
- MIC (Pseudomonas aeruginosa [4]; P. aeruginosa MMX 4697, VIM-2, Lev^R, Cip^R, MEM^R, CAZ^R): 32 µg/mL (≈ 58.5 µM)
- MIC (Acinetobacter baumannii; A. baumannii MMX 2592, MDR, Lev^R, Cip^R, MEM^R, CAZ^R, Gm^R): 32 µg/mL (≈ 58.5 µM)
- MIC (Acinetobacter baumannii; A. baumannii MMX 2593, MDR, Lev^R, Cip^R, MEM^R, CAZ^R, Gm^R): 32 µg/mL (≈ 58.5 µM)
- MIC (Acinetobacter baumannii; A. baumannii MMX 3372, MDR, Cip^R, MEM^I, CAZ^I): 16 µg/mL (≈ 29.3 µM)
- MIC (Acinetobacter baumannii; A. baumannii MMX 3373, Sensitive): 4 µg/mL (≈ 7.32 µM)
- MIC (Acinetobacter baumannii; NCTC13304, A. baumannii MMX 4651 (NCTC 13304), MDR, OXA-27, Lev^R, Cip^R, MEM^R, CAZ^R, Gm^I): > 32 µg/mL
- MIC ([5]; ATCC29213|MRSA|MSSA, S. aureus MMX 101 (ATCC 29213), QC, MSSA): 8 µg/mL (≈ 14.6 µM)
- MIC ([5]; MRSA, S. aureus MMX 5373, MRSA Lev^R Cip^R CC^R Ery^R Ox^R): > 32 µg/mL
- MIC ([5]; MRSA, S. aureus MMX 6311, MRSA Lev^R Cip^R CC^R Ery^R Ox^R): > 32 µg/mL
- MIC ([5]; MRSA, S. aureus MMX 9203, MRSA Lev^R Cip^R Ery^R Ox^R): > 32 µg/mL
- MIC ([5]; MRSA, S. aureus MMX 9204, MRSA Lev^R Cip^R Ery^R Ox^R): > 32 µg/mL
- MIC ([5]; MRSA, S. aureus MMX 9205, MRSA Lev^R Cip^R CC^R Ery^R Ox^R): > 32 µg/mL
- MIC (E. faecalis; E. faecalis MMX 8960): > 32 µg/mL
- MIC (E. faecalis; E. faecalis MMX 8961): > 32 µg/mL
- MIC (E. faecalis; E. faecalis MMX 8962): > 32 µg/mL
Compound: CC(C)(O/N=C(\C(=O)N[C@@H]1C(=O)N2C(C(=O)[O-])=C(C[n+]3ccccc3)CS[C@H]12)c1csc(N)n1)C(=O)O [Ceftazidime]
- CLSI QC range of MIC (Escherichia coli [1]): (0.06-0.5) μg/mL
- CLSI QC range of MIC (Pseudomonas aeruginosa [2]): (1-4) μg/mL

Compound: CC[C@H]1OC(=O)[C@H](C)[C@@H](O[C@H]2C[C@@](C)(OC)[C@@H](O)[C@H](C)O2)[C@H](C)[C@@H](O[C@@H]2O[C@H](C)C[C@H](N(C)C)[C@H]2O)[C@](C)(OC)C[C@@H](C)C(=O)[C@H](C)[C@@H](O)[C@]1(C)O [Clarithromycin, reference compound]
- MIC (M. abscessus complex; AMT0130-8, M abscessus/massiliense complex): 1 µg/mL (≈ 1.34 µM)
- MIC (M. abscessus complex; AMT153-9, M abscessus/massiliense complex): 2 µg/mL (≈ 2.67 µM)
- MIC (M. abscessus complex; AMT0493-2, M abscessus/massiliense complex, Amikacin resistant): 2 µg/mL (≈ 2.67 µM)
- MIC (M. abscessus complex; ATCC19977, ATCC 19977, M abscessus/massiliense complex, Macrolide resistant (inducible)): > 32 µg/mL
- Expected MIC: goal (acceptable range) (S. aureus ATCC 29213): 0.25 (0.12-0.5) mcg/mL
